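Results reflect a 48-hour exposure of cells in 96-well plates to compound at five concentrations. Abbreviation: GI50, concentration required for 50% inhibition of growth.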 Calls of active or inactive are those of the source. No stated cut-off is given here; in the data, active = GI50 up to about 1.1 µM and inactive = higher.
Tests used:
Assay in all cases: DTP human tumour cell line panel, 48 h
[1] = system: KM12
[2] = system: SK-MEL-5
[3] = system: DMS-273
[4] = system: SK-OV-3
[5] = system: Malme-3M
[6] = system: LXFL 529
[7] = system: CAKI-1
[8] = system: A549
[9] = system: XF498
[10] = system: DLD-1
[11] = system: OVCAR-4
[12] = system: HL-60
[13] = system: KM-20L2
[14] = system: M14
[15] = system: HOP-18
[16] = system: U-251
[17] = system: HOP-62
[18] = system: SK-MEL-28
[19] = system: HCT-116
[20] = system: SNB-75
[21] = system: EKVX
[22] = system: TK-10
[23] = system: UACC-257
[24] = system: 786-0
[25] = system: SNB-19
[26] = system: UACC-62
[27] = system: NCI-H226
[28] = system: SN12C
[29] = system: IGROV-1
[30] = system: RXF 393
[31] = system: MOLT-4
[32] = system: K562
[33] = system: OVCAR-5
[34] = system: LOX IMVI
[35] = system: SK-MEL-2
[36] = system: ACHN
[37] = system: NCI-H460
[38] = system: SF-268
[39] = system: OVCAR-3
[40] = system: UO-31
[41] = system: SR
[42] = system: HT-29
[43] = system: CCRF-CEM
[44] = system: COLO 205
[45] = system: OVCAR-8
[46] = system: NCI-H522
[47] = system: HCC 2998
[48] = system: A498
[49] = system: SNB-78
[50] = system: RXF 631
[51] = system: SW-620
[52] = system: NCI-H23
[53] = system: M19-MEL
[54] = system: SF-295
[55] = system: RPMI-8226
[56] = system: HCT-15
[57] = system: SF-539
[58] = system: HOP-92
[59] = system: MDA-MB-435
[60] = system: Hs-578T
[61] = system: BT-549
[62] = system: MDA-MB-231
[63] = system: DU-145
[64] = system: MCF7
[65] = system: PC-3
[66] = system: NCI/ADR-RES
[67] = system: MDA-N
[68] = system: DMS-114

Measured: GI50

CCOc1ccc(NC(=O)CC#N)cc1
inactive: [1] > 100 µM | [2] > 100 µM | [3] > 100 µM | [4] > 100 µM | [5] > 100 µM | [6] > 100 µM | [7] > 100 µM | [8] > 100 µM | [9] > 100 µM | [10] > 100 µM | [11] > 100 µM | [12] > 100 µM | [13] > 100 µM | [14] > 100 µM | [15] > 100 µM | [16] > 100 µM | [17] > 100 µM | [18] > 100 µM | [19] > 100 µM | [20] > 100 µM | [21] > 100 µM | [22] > 100 µM | [23] > 100 µM | [24] > 100 µM | [25] > 100 µM | [26] > 100 µM | [27] > 100 µM | [28] > 100 µM | [29] > 100 µM | [30] > 100 µM | [31] > 100 µM | [32] > 100 µM | [33] > 100 µM | [34] > 100 µM | [35] > 100 µM | [36] > 100 µM | [37] > 100 µM | [38] > 100 µM | [39] > 100 µM | [40] > 100 µM | [41] > 100 µM | [42] > 100 µM | [43] > 100 µM | [44] > 100 µM | [45] > 100 µM | [46] > 100 µM | [47] 6.79 µM | [48] > 100 µM | [49] > 100 µM | [50] > 100 µM | [51] > 100 µM | [52] > 100 µM | [53] > 100 µM | [54] > 100 µM

CC1CC(C2=CC=CCS2)=Nc2ccccc2S1 (stereo unspecified)
inactive: [1] > 100 µM | [2] > 100 µM | [3] > 100 µM | [4] > 100 µM | [5] > 100 µM | [55] 97.5 µM | [6] > 100 µM | [7] > 100 µM | [8] > 100 µM | [9] > 100 µM | [10] 70 µM | [11] > 100 µM | [12] > 100 µM | [13] > 100 µM | [14] > 100 µM | [15] > 100 µM | [16] > 100 µM | [17] > 100 µM | [18] > 100 µM | [19] 84.9 µM | [57] > 100 µM | [20] 14.1 µM | [21] > 100 µM | [22] > 100 µM | [23] 12.3 µM | [24] > 100 µM | [25] 71.3 µM | [26] > 100 µM | [28] > 100 µM | [29] > 100 µM | [30] > 100 µM | [31] > 100 µM | [32] > 100 µM | [33] > 100 µM | [34] > 100 µM | [35] > 100 µM | [36] > 100 µM | [37] > 100 µM | [38] > 100 µM | [39] > 100 µM | [40] > 100 µM | [43] > 100 µM | [44] > 100 µM | [45] > 100 µM | [58] 48.4 µM | [46] 92.3 µM | [47] 80.4 µM | [48] > 100 µM | [49] > 100 µM | [50] > 100 µM | [51] > 100 µM | [52] > 100 µM | [53] > 100 µM | [54] > 100 µM
> 100 µM: [56]

O=C1/C(=C/c2ccc(Cl)c(Cl)c2)CN(C(=O)CCN2CCOCC2)C/C1=C\c1ccc(Cl)c(Cl)c1
active: [59] 0.0121 µM | [10] 0.182 µM | [11] 0.00395 µM | [61] 0.0169 µM | [62] 0.00286 µM | [63] 0.0373 µM | [31] 0.00283 µM | [64] 0.0184 µM | [34] 0.00217 µM | [39] 0.00454 µM | [65] 0.00331 µM | [66] 0.0043 µM | [67] 0.0145 µM | [68] 0.746 µM
inactive: [3] 1.12 µM | [6] 1.56 µM | [7] 1.51 µM | [13] 1.38 µM | [15] 2.55 µM | [60] 7.76 µM | [21] 2.4 µM | [26] 1.71 µM | [27] 2.04 µM | [47] 2.09 µM | [49] 2.66 µM | [50] 2.94 µM | [53] 1.64 µM

Reference: ChEMBL document CHEMBL1201862, “PubChem BioAssay data set” (2004)
